Measurements reported in PMC9415903, “Confocal Laser Scanning Microscopy and Model Membranes to Study Translocation Mechanisms of Membrane Active Peptides” (Pharmaceutics, 2022).
Entries after “also recorded” stand apart in the source; their conditions may differ.

Columns and labels:
[1] = DOPS and/or DOPE containing GUVs; cited from earlier work
Text: In GUVs that contain 30 mol% PE, all peptides internalize, but only TAT and NKCS are able to form transmembrane pores through which the fluorescent dyes Alexa Fluor 488 can pass.

[2] = Peptide internalization and Alexa Fluor 488 efflux in neutral GUVs, confocal laser scanning microscopy; format: in vitro ADME; details: POPC/chol 80/20 mol% GUVs; 2 µM peptide; room temperature; up to 30 min; CLSM
Protocol: (§1) Giant unilamellar vesicles (GUVs) were obtained by the electroformation method as previously indicated. For that, 30 µL of different lipid mixtures (detailed in the Results section) were dissolved in chloroform and spread on indium tin oxide (ITO) glass slides (Sigma-Aldrich, Schnelldorf, Germany). After drying, the lipid film was gently hydrated with 200 mM sucrose dissolved in double distilled water, mixed with a fluorescent tracer, Alexa Fluor 488-maleimide (AF 488), at a concentration of 10 µM. The freshly prepared GUVs were then transferred in 180 mM glucose solution containing 20 mM Hepes, with a pH of 7.5. The samples were observed by confocal microscope at room temperature.
(§2) The experiments were performed using a confocal laser scanning microscope (Nikon Ti-E, Tokyo, Japan), equipped with LU4 Four-Laser Module with AOTF, a Plan Fluor 40x DIC M N2 objective and a DS-F1camera. An Alexa Fluor 488 tracer was excited using a line of 457–514 nm argon ion laser, TAMRA-TAT peptide with a diode laser emitting at 561 nm, and Dy647P1-peptides with a 642 nm diode laser. To observe the accumulation and internalization of peptides and the efflux of fluorescent tracers, the freshly prepared GUVs were transferred to a solution of glucose containing 2 µM fluorescently labeled peptide, to provide a homogeneous distribution of peptides to membranes. For each type of experiment, at least 10–15 GUVs with a diameter of 30–40 μm from two independent experiments were analyzed. Successive images were collected using the Nis-Elements Advanced Research imaging software (Nikon) and then quantification of fluorescence was performed using Fiji ImageJ [14]. The resulting data were then analyzed with Origin Pro 8.5 (OriginLab Corporation, Northampton, MA, USA).
(§3) For the present study, GUVs mimicking the mammalian plasma membrane were prepared as follows: POPC/cholesterol 80/20 mol%, POPC/POPE/cholesterol 50/30/20 mol% and POPC/POPS/cholesterol 50/30/20 mol%. The peptides fluorescently labeled (see Figure 1 for structure) were added at a concentration of 2 µM and the experiments were performed at room temperature.

[3] = Peptide internalization and Alexa Fluor 488 efflux in POPS GUVs, confocal laser scanning microscopy; format: in vitro ADME; details: room temperature; for Kint, peptide internalization rate constant: GUVs POPC/POPS/chol 50/30/20 mol%, 2 µM fluorescently labeled peptide, 180 mM glucose, 20 mM Hepes pH 7.5, CLSM fluorescence inside GUVs, fit F(t)=1−exp(−kint×t), data from three experiments averaged; for Pore formation (efflux of AF 488, lytic effect) / Internalization of peptide in GUVs: POPC/POPS/chol 50/30/20 mol% GUVs, 2 µM peptide, 30 min, CLSM
Protocol: as §1, §2, §3
(§4) For kinetic traces, the time course of fluorescence intensity corresponding to peptides and Alexa Fluor 488 inside GUVs was measured. The data from three experiments were averaged and then fitted with a single rising exponential function to determine the values of internalization rates:F(t) = 1 − exp (−kint × t) (1) where t is time and kint is the peptide internalization rate constant.
(§5) The intensity corresponding to release of tracer Alexa Fluor 488 from GUVs in the presence of peptides was also measured to determine the efflux rates, using a single exponential decay function:F(t) = exp (−keff × t) (2) where t is time and keff is the peptide efflux rate constant.

[4] = Peptide internalization and Alexa Fluor 488 efflux in POPE GUVs, confocal laser scanning microscopy; format: in vitro ADME; details: room temperature; for Kint, peptide internalization rate constant: GUVs POPC/POPE/chol 50/30/20 mol%, 2 µM fluorescently labeled peptide, 180 mM glucose, 20 mM Hepes pH 7.5, CLSM fluorescence inside GUVs, fit F(t)=1−exp(−kint×t), data from three experiments averaged
Protocol: as §1, §2, §3, §4, §5

[5] = TAMRA-TAT internalization and Alexa Fluor 488 efflux in GUVs with increasing cholesterol; format: in vitro ADME; details: 40 mol% chol (POPC/POPE/POPS/chol 30/20/10/40 mol%); CLSM
Protocol: as §1
The experiments were performed using a confocal laser scanning microscope (Nikon Ti-E, Tokyo, Japan), equipped with LU4 Four-Laser Module with AOTF, a Plan Fluor 40x DIC M N2 objective and a DS-F1camera. […] For each type of experiment, at least 10–15 GUVs with a diameter of 30–40 μm from two independent experiments were analyzed. Successive images were collected using the Nis-Elements Advanced Research imaging software (Nikon) and then quantification of fluorescence was performed using Fiji ImageJ [14]. The resulting data were then analyzed with Origin Pro 8.5 (OriginLab Corporation, Northampton, MA, USA). […]

[6] = POPC/POPE/chol 50/30/20 mol% GUVs, 2 µM peptide, 30 min, CLSM

Compound: nona-arginine [R9]
- Pore formation [1]: able to form pores

Compound: Dy647P1-CGNKRTR [tLyP-1, Dy647P1-labeled tumor homing peptide, truncated linear form of cyclic peptide LyP-1]
- Efflux of Alexa Fluor 488 from GUVs [2]: Neither peptide internalization nor AF 488 efflux can be observed
- Kint, peptide internalization rate constant [3]: (0.75 ± 0.27) × 10^−3 s^−1
- Pore formation (efflux of AF 488, lytic effect) [3]: just translocate without generating pores
- Kint, peptide internalization rate constant [4]: (0.78 ± 0.03) × 10^−3 s^−1
- Efflux of AF 488 (lytic effect, pore formation) [4, 6]: without the release of AF 488

Compound: CN(C)c1ccc2c(c1)Oc1cc(N(C)C)ccc1C21OC(=O)c2cc(C(=O)N[C@@H](Cc3ccc(O)cc3)C(=O)NCC(=O)N[C@@H](CCCNC(=N)N)C(=O)N[C@@H](CCCCN)C(=O)N[C@@H](CCCCN)C(=O)N[C@@H](CCCNC(=N)N)C(=O)N[C@@H](CCCNC(=N)N)C(=O)N[C@@H](CCC(N)=O)C(=O)N[C@@H](CCCNC(=N)N)C(=O)N[C@@H](CCCNC(=N)N)C(=O)N[C@@H](CCCNC(=N)N)C(=O)O)ccc21 [TAT, reference compound]
- Internalization of peptide in GUVs [2]: Neither peptide internalization nor AF 488 efflux can be observed
- Internalization of peptide in GUVs [3]: internalized
- Internalization of the peptide [5]: neither the internalization of the peptide nor the efflux of the fluorescent tracer could be registered

Compound: Dy647P1-LRRISKDILTGKK [NKCS-[15-27]]
- Efflux of Alexa Fluor 488 from GUVs [2]: Neither peptide internalization nor AF 488 efflux can be observed
- Internalization of peptide in GUVs [2]: Neither peptide internalization nor AF 488 efflux can be observed
- Kint, peptide internalization rate constant [3]: (0.50 ± 0.23) × 10^−3 s^−1
- Internalization of peptide in GUVs [3]: internalized
- Pore formation (efflux of AF 488, lytic effect) [3]: no lytic effect; also recorded: just translocate without generating pores
- Kint, peptide internalization rate constant [4]: (0.20 ± 0.04) × 10^−3 s^−1
- Efflux of AF 488 (lytic effect, pore formation) [4, 6]: without the release of AF 488
- Internalization of peptide in GUVs [4, 6]: internalized
